Experiments:
[1] = Cynomolgus monkey tolerability, body and organ weight measurements (Example 34); type: in vivo; conditions: cynomolgus monkeys, 35 mg/kg subcutaneously; for Heart weight / Kidney weight / Liver with gallbladder weight / Spleen weight: necropsy; for Terminal Body Weight: prior to necropsy
Experimental: Cynomolgus monkeys were treated with Ionis modified oligonucleotides selected from studies described in the Examples above. Modified oligonucleotide tolerability was evaluated.
During the study period, the monkeys were observed twice daily for signs of illness or distress. Any animal experiencing more than momentary or slight pain or distress due to the treatment, injury or illness was treated by the veterinary staff with approved analgesics or agents to relieve the pain after consultation with the Study Director. Any animal in poor health or in a possible moribund condition was identified for further monitoring and possible euthanasia. Scheduled euthanasia of the animals was conducted on day 86 approximately 48 hours after the last dose by exsanguination while under deep anesthesia. The protocols described in the Example were approved by the Institutional Animal Care and Use Committee (IACUC).
To evaluate the effect of Ionis oligonucleotides on the overall health of the animals, body and organ weights were measured. Terminal body weight was measured prior to necropsy.

Yap1 mRNA [2] = experiment: Dose-dependent inhibition of human Yap1 in A-431 cells (Example 24, 11,000 cells per well, RTS36584, normalized to GAPDH); type: cell-based; conditions: free uptake, 48 hours; for Yap1 mRNA, % UTC: RTS36584, normalized to GAPDH; for IC50: linear regression on a log/linear plot
Experimental: Modified oligonucleotides described in the studies above were tested at various doses in A-431 cells. Cultured A-431 cells at a density of 11,000 cells per well were treated using free uptake with modified oligonucleotides diluted to concentrations described in the tables below. After approximately 48 hours, Yap1 mRNA levels were measured as previously described using the Human Yap1 primer-probe set RTS36584. Yap1 mRNA levels were normalized to GAPDH content, as measured by primer probe set RTS104 (forward sequence […], designated herein as SEQ ID NO.: 17; reverse sequence […], designated herein as SEQ ID NO.: 18; probe sequence […], designated herein as SEQ ID NO.: 19). Results are presented in the tables below as percent control of the amount of Yap1 mRNA relative to untreated control cells (% UTC). IC50s were calculated using a linear regression on a log/linear plot of the data in excel.

[3] = Cynomolgus monkey tolerability, kidney and liver function markers (Example 34); conditions: cynomolgus monkeys, 35 mg/kg subcutaneously, day 44
Yap1 mRNA [4] = experiment: Yap1 mRNA in SCC25 cells, RNA analysis (Example 25); type: cell-based, human; conditions: free uptake, 48 hours, RTS4814, normalized to actin-beta
Experimental: Modified oligonucleotides described in the studies above were tested at various doses in squamous cell carcinoma cell SCC25. A control oligonucleotide 792169 (a 3-10-3 cET gapmer with a full phosphorothioate backbone, […], designated herein as SEQ ID No.: 2940; is not complementary to any known human gene) was also tested.
Cultured SCC25 cells at a density of 5,000 cells per well were treated using free uptake with modified oligonucleotides diluted to concentrations described in the tables below. After approximately 48 hours, Yap1 mRNA levels were measured as previously described using the Human Yap1 primer-probe set RTS4814. Yap1 mRNA levels were normalized to actin-beta content, as measured by primer probe set RTS5002 (forward sequence […], designated herein as SEQ ID NO.: 20; reverse sequence […], designated herein as SEQ ID NO.: 21; probe sequence […], designated herein as SEQ ID NO.: 22). Results are presented in the tables below as percent control of the amount of Yap1 mRNA relative to untreated control cells (% UTC).

[5] = Cynomolgus monkey tolerability, coagulation (Example 34); type: in vivo; conditions: cynomolgus monkeys, 35 mg/kg subcutaneously, day 44
Experimental: To evaluate effect of Ionis modified oligonucleotides on coagulation in cynomolgus monkeys, blood samples of approximately 0.9 mL were collected from each of the available study animals on day 44. The samples were collected in tubes containing 3.2% sodium citrate. Coagulation parameters tested include Activated partial thromboplastin time (APTT), prothrombin time (PT) and Figrinogen (FIB).

Yap1 mRNA [6] = experiment: Inhibition of human Yap1 mRNA in SNU449 hepatocellular carcinoma xenograft tumors (Example 26); type: in vivo; conditions: SNU449 xenografts in NSG mice, 50 mg/kg twice weekly for five days, relative to PBS treated animals
In short: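 Female NSG mice bearing subcutaneous SNU449 xenografts (about 100 mm^3) dosed with modified oligonucleotides at 50 mg/kg twice weekly for five days, four per group. Tumour Yap1 mRNA measured by RT-qPCR, normalized to actin-beta, expressed as % of PBS-treated controls.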

[7] = Cynomolgus monkey tolerability, urine analysis (Example 34); conditions: cynomolgus monkeys, 35 mg/kg subcutaneously, day 44
Experimental: Prior to the study, the monkeys were kept in quarantine during which the animals were observed daily for general health. The monkeys were 2-4 years old and weighed 2-4 kg. Eleven groups of 4 randomly assigned male cynomolgus monkeys each were injected subcutaneously with Ionis oligonucleotide or saline in a clock-wise rotation between four different sites on the back. Following loading doses on days 1, 3, 5 and 7, the monkeys were dosed once per week (on days 14, 21, 28, 35, and 42) with 35 mg/kg of Ionis oligonucleotide.
Food was removed overnight the day before fresh urine collection, but water was supplied. Fresh urine samples for urinalysis and urine chemistry were collected from all animals using a clean cage pan on wet ice (first in the morning) on day 44. Urinalysis/Urine Chemistry parameters creatinine (UCRE), microprotein (UTP), urine microalbumin (UALB), and protein/creatinine (P/C) ratio were measured using a Toshiba 120FR automated chemistry analyzer (Toshiba Co., Japan).

[8] = Cynomolgus monkey tolerability, pro-inflammatory proteins analysis, Complement C3 and CRP (Example 34); type: in vivo; conditions: cynomolgus monkeys, 35 mg/kg subcutaneously; for CRP: day 44
Experimental: To evaluate any inflammatory effect of Ionis oligonucleotides in cynomolgus monkeys, blood samples were taken for analysis. The monkeys were fasted overnight prior to blood collection. On day 42 (pre-dose and 24 hours post-dose), approximately 0.8 mL of blood was collected from each animal and put into tubes without anticoagulant for serum separation. […] Complement C3 were measured using a Toshiba 120 FR NEO chemistry analyzer (Toshiba Co., Japan). […] Another marker of inflammation, C-Reactive Protein (CRP) was tested together with the clinical chemistry parameters tested for liver function above.

Substance | Heart weight [1] [g] | Kidney weight [1] [g] | Liver with gallbladder weight [1] [g] | Spleen weight [1] [g] | Terminal Body Weight [1] [g] | Yap1 mRNA, % UTC (Yap1 mRNA [2]; 0.002 μM) [% UTC] | Yap1 mRNA, % UTC (Yap1 mRNA [2]; 0.008 μM) [% UTC] | Yap1 mRNA, % UTC (Yap1 mRNA [2]; 0.04 μM) [% UTC] | Yap1 mRNA, % UTC (Yap1 mRNA [2]; 0.2 μM) [% UTC] | Yap1 mRNA, % UTC (Yap1 mRNA [2]; 1 μM) [% UTC] | ALB [3] [g/dL] | ALP [3] [IU/L] | ALT [3] [IU/L] | AST [3] [IU/L] | BUN [3] [mg/dL] | CREA [3] [mg/dL] | GGT [3] [IU/L] | GLO [3] [g/dL] | GLU [3] [mg/dL] | HDL [3] [mg/dL] | further results
1198439 (AGTGTATGTCAGAAGA; sugar, 5-methylcytosine, phosphorothioate modifications, further chemistry not given here) [compound 1198439] | 10 | 15 | 67 | 3 | 2959 | 0 | 1 | 11 | 65 | 93 | 4.0 | 1298 | 40 | 65 | 24 | 0.9 | 63 | 2.8 | 115 | 82 | IC50 (Yap1 mRNA [2]): 20 nM; LDL [3]: 59 mg/dL; TBIL [3]: 0.2 mg/dL; TG [3]: 28 mg/dL; TP [3]: 6.8 g/dL; Yap1 mRNA, % UTC (Yap1 mRNA [4]; 0.04 μM): 35 % UTC; Yap1 mRNA, % UTC (Yap1 mRNA [4]; 0.2 μM): 12 % UTC; Yap1 mRNA, % UTC (Yap1 mRNA [4]; 1 μM): 5 % UTC; Yap1 mRNA, % UTC (Yap1 mRNA [4]; 5 μM): 3 % UTC; APTT [5]: 19 s; FIB [5]: 246 mg/dL; PT [5]: 10 s; Yap1 mRNA in tumors, % control (Yap1 mRNA [6]): 51 % control; UALB [7]: 0.1 mg/dL; UCRE [7]: 68 mg/dL; UTP [7]: 15 mg/dL; Complement C3 ([8]; Day 42 (pre-dose)): 99 mg/dL; Complement C3 ([8]; day 42 (24 hr post-dose)): 94 mg/dL; CRP [8]: 2.9 mg/L
1076453 (GTAATATTGCAATCTG; 3-10-3 cEt gapmer, further chemistry not given here) [compound 1076453] | 11 | 16 | 72 | 5 | 2955 | 0 | 1 | 23 | 74 | 89 | 3.9 | 1173 | 53 | 76 | 27 | 0.9 | 78 | 3.1 | 89 | 98 | LDL [3]: 66 mg/dL; TBIL [3]: 0.2 mg/dL; TG [3]: 29 mg/dL; TP [3]: 7.0 g/dL; Yap1 mRNA, % UTC (Yap1 mRNA [4]; 0.04 μM): 59 % UTC; Yap1 mRNA, % UTC (Yap1 mRNA [4]; 0.2 μM): 21 % UTC; Yap1 mRNA, % UTC (Yap1 mRNA [4]; 1 μM): 7 % UTC; Yap1 mRNA, % UTC (Yap1 mRNA [4]; 5 μM): 3 % UTC; APTT [5]: 20 s; FIB [5]: 234 mg/dL; PT [5]: 9 s; Yap1 mRNA in tumors, % control (Yap1 mRNA [6]): 56 % control; UALB [7]: 0.1 mg/dL; UCRE [7]: 50 mg/dL; UTP [7]: 14 mg/dL; Complement C3 ([8]; Day 42 (pre-dose)): 101 mg/dL; Complement C3 ([8]; day 42 (24 hr post-dose)): 88 mg/dL; CRP [8]: 1.5 mg/L
1198440 (AAGTGTATGTCAGAAG; cEt, 2'-MOE, 5-methylcytosine, phosphorothioate modifications, further chemistry not given here) [compound 1198440] | 11 | 15 | 65 | 3 | 2919 | 0 | 1 | 14 | 69 | 96 | 4.1 | 1412 | 45 | 75 | 26 | 0.9 | 80 | 2.9 | 91 | 104 | IC50 (Yap1 mRNA [2]): 20 nM; LDL [3]: 54 mg/dL; TBIL [3]: 0.2 mg/dL; TG [3]: 30 mg/dL; TP [3]: 7.0 g/dL; Yap1 mRNA, % UTC (Yap1 mRNA [4]; 0.04 μM): 39 % UTC; Yap1 mRNA, % UTC (Yap1 mRNA [4]; 0.2 μM): 14 % UTC; Yap1 mRNA, % UTC (Yap1 mRNA [4]; 1 μM): 5 % UTC; Yap1 mRNA, % UTC (Yap1 mRNA [4]; 5 μM): 3 % UTC; APTT [5]: 20 s; FIB [5]: 260 mg/dL; PT [5]: 10 s; Yap1 mRNA in tumors, % control (Yap1 mRNA [6]): 51 % control; UALB [7]: 0.2 mg/dL; UCRE [7]: 53 mg/dL; UTP [7]: 13 mg/dL; Complement C3 ([8]; Day 42 (pre-dose)): 95 mg/dL; Complement C3 ([8]; day 42 (24 hr post-dose)): 88 mg/dL; CRP [8]: 4.8 mg/L

From US11214803B2, “Modulators of YAP1 expression” (Ionis Pharmaceuticals, Inc., priority 2019, dated 2022)
